# Activity calls are given as the source filed them. No cut-off for these calls is given here.
# Experiments:
# [1] = target: T1, DNA topoisomerase 2-alpha (Homo sapiens, UniProt P11388); assay: Inhibition of human topoisomerase 2-alpha using pBR322 DNA as substrate incubated for 30 mins in presence of 0.5 to 5 mM ATP (reference value: 3.4 microM)
# MDA-MB-231 = assay: Antiproliferative activity against human MDA-MB-231 cells incubated for 72 hrs by CCK8 assay; type: functional, cell-based; settings: Homo sapiens, MDA-MB-231, 72 h
# HepG2 [2] = assay: Antiproliferative activity against human HepG2 cells incubated for 72 hrs by CCK8 assay; type: functional, cell-based; settings: Homo sapiens, HepG2, 72 h
# [3] = target: T1, DNA topoisomerase 2-alpha; assay: Inhibition of human topoisomerase 2-alpha assessed as reduction in relaxation of pBR322 DNA at 100 uM measured after 30 mins by agarose gel electrophoresis method relative to control
# HeLa = assay: Antiproliferative activity against human HeLa cells incubated for 72 hrs by CCK8 assay; type: functional, cell-based
# HCT-116 = assay: Antiproliferative activity against human HCT-116 cells incubated for 72 hrs by CCK8 assay; type: functional, cell-based; settings: HCT-116, 72 h
# PC-3 = assay: Antiproliferative activity against human PC-3 cells incubated for 72 hrs by CCK8 assay; type: functional, cell-based; settings: PC-3, 72 h
# [4] = Antiproliferative activity against human CCL-226 cells incubated for 72 hrs by CCK8 assay; type: toxicity, cell-based
# [5] = Antiproliferative activity against human BEAS-2B cells incubated for 72 hrs by CCK8 assay; type: toxicity, cell-based
# [6] = Antiproliferative activity against human HL7702 cells incubated for 72 hrs by CCK8 assay; type: toxicity, cell-based; settings: HL7702 (L02) cells
# Homo sapiens [7] = species: Homo sapiens; assay: Selectivity index, ratio of IC50 for human CCL-226 cells to IC50 for human HeLa cells
# Homo sapiens [8] = species: Homo sapiens; assay: Selectivity index, ratio of IC50 for human CCL-226 cells to IC50 for human PC-3 cells
# Homo sapiens [9] = species: Homo sapiens; assay: Selectivity index, ratio of IC50 for human CCL-226 cells to IC50 for human MDA-MB-231 cells
# Homo sapiens [10] = species: Homo sapiens; assay: Selectivity index, ratio of IC50 for human CCL-226 cells to IC50 for human HepG2 cells
# Homo sapiens [11] = species: Homo sapiens; assay: Selectivity index, ratio of IC50 for human CCL-226 cells to IC50 for human A549 cells
# [12] = Selectivity index, ratio of IC50 for human BEAS-2B cells to IC50 for human HeLa cells; type: toxicity; settings: BEAS-2B cells versus HeLa cells, read-out: Ratio IC50
# [13] = Selectivity index, ratio of IC50 for human BEAS-2B cells to IC50 for human HCT-116 cells; type: toxicity; settings: BEAS-2B cells versus HCT-116 cells, read-out: Ratio IC50
# [14] = Selectivity index, ratio of IC50 for human BEAS-2B cells to IC50 for human PC-3 cells; type: toxicity; settings: BEAS-2B cells versus PC-3 cells, read-out: Ratio IC50
# [15] = Selectivity index, ratio of IC50 for human BEAS-2B cells to IC50 for human MDA-MB-231 cells; type: toxicity; settings: BEAS-2B cells versus MDA-MB-231 cells, read-out: Ratio IC50
# [16] = Selectivity index, ratio of IC50 for human BEAS-2B cells to IC50 for human HepG2 cells; type: toxicity; settings: BEAS-2B cells versus HepG2 cells, read-out: Ratio IC50
# [17] = Selectivity index, ratio of IC50 for human BEAS-2B cells to IC50 for human A549 cells; type: toxicity; settings: BEAS-2B cells versus A549 cells, read-out: Ratio IC50
# [18] = Selectivity index, ratio of IC50 for human HL-7702 cells to IC50 for human HeLa cells; type: toxicity; settings: HL-7702 cells versus HeLa cells, read-out: Ratio IC50
# [19] = Selectivity index, ratio of IC50 for human HL-7702 cells to IC50 for human PC-3 cells; type: toxicity; settings: HL-7702 cells versus PC-3 cells, read-out: Ratio IC50
# [20] = Selectivity index, ratio of IC50 for human HL-7702 cells to IC50 for human MDA-MB-231 cells; type: toxicity; settings: HL-7702 cells versus MDA-MB-231 cells, read-out: Ratio IC50
# [21] = target: T1, DNA topoisomerase 2-alpha; assay: Inhibition of human topoisomerase 2-alpha assessed as DNA intercalation at 100 to 200 uM using pBR322 DNA as substrate measured after 30 mins by agarose gel electrophoresis analysis; settings: dose 100-200 µM
# A549 = assay: Antiproliferative activity against human A549 cells incubated for 72 hrs by CCK8 assay; type: functional, cell-based; settings: A549, 72 h
# [22] = target: T1, DNA topoisomerase 2-alpha; assay: Poison activity at human topoisomerase 2-alpha assessed as linear DNA formation at 100 to 200 microM; settings: dose 100-200 µM
# HepG2 [23] = assay: Upregulation of gamma-H2AX level in human HepG2 cells incubated for 4 hrs by Western blotting analysis; type: functional, cell-based
# [24] = target: T1, DNA topoisomerase 2-alpha; assay: Inhibition of human topoisomerase 2-alpha using pBR322 DNA as substrate incubated for 1 hr in presence of ATP by malachite green phosphate method
# HepG2 [25] = assay: Induction of cell cycle arrest in human HepG2 cells assessed as accumulation of cells at G1 phase at 0.5 uM incubated for 24 hrs by PI staining based flow cytometry analysis (reference value: 54%); type: functional
# HepG2 [26] = assay: Induction of cell cycle arrest in human HepG2 cells assessed as accumulation of cells at S phase at 0.5 uM incubated for 24 hrs by PI staining based flow cytometry analysis (reference value: 28.2%); type: functional
# HepG2 [27] = assay: Induction of cell cycle arrest in human HepG2 cells assessed as accumulation of cells at G2/M phase at 0.5 uM incubated for 24 hrs by PI staining based flow cytometry analysis (reference value: 17.5%); type: functional
# HepG2 [28] = assay: Induction of cell cycle arrest in human HepG2 cells assessed as accumulation of cells at S phase at 1 uM incubated for 24 hrs by PI staining based flow cytometry analysis (reference value: 28.2%); type: functional
# HepG2 [29] = assay: Induction of apoptosis in human HepG2 cells assessed as early apoptotic cells at 1 uM incubated for 24 hrs by annexin-V FITC and PI staining based flow cytometry analysis (reference value: 3.7%); type: functional
# HepG2 [30] = assay: Induction of apoptosis in human HepG2 cells assessed as late apoptotic cells at 1 uM incubated for 24 hrs by annexin-V FITC and PI staining based flow cytometry analysis (reference value: 2.3%); type: functional
# [31] = Toxicity in C57BL/6J mouse assessed as change in body weight at 500 mg/kg administered via gavage twice at day 1 and measured for 7 days; type: organism-based; settings: in vivo, po, 168 h, time 7 day
# HepG2 [32] = assay: Induction of apoptosis in human HepG2 cells assessed as early apoptotic cells at 0.5 uM incubated for 24 hrs by annexin-V FITC and PI staining based flow cytometry analysis (reference value: 3.7%); type: functional
# HepG2 [33] = assay: Induction of apoptosis in human HepG2 cells assessed as necrotic cells at 0.5 uM incubated for 24 hrs by annexin-V FITC and PI staining based flow cytometry analysis (reference value: 0.2%); type: functional
# DNA topoisomerase 2-beta = DNA topoisomerase 2-beta (Homo sapiens, UniProt Q02880); assay: Inhibition of human topoisomerase 2-beta assessed as reduction in relaxation of pBR322 DNA measured after 30 mins by agarose gel electrophoresis method
# Sequence of DNA topoisomerase 2-beta (Q02880 whole entry): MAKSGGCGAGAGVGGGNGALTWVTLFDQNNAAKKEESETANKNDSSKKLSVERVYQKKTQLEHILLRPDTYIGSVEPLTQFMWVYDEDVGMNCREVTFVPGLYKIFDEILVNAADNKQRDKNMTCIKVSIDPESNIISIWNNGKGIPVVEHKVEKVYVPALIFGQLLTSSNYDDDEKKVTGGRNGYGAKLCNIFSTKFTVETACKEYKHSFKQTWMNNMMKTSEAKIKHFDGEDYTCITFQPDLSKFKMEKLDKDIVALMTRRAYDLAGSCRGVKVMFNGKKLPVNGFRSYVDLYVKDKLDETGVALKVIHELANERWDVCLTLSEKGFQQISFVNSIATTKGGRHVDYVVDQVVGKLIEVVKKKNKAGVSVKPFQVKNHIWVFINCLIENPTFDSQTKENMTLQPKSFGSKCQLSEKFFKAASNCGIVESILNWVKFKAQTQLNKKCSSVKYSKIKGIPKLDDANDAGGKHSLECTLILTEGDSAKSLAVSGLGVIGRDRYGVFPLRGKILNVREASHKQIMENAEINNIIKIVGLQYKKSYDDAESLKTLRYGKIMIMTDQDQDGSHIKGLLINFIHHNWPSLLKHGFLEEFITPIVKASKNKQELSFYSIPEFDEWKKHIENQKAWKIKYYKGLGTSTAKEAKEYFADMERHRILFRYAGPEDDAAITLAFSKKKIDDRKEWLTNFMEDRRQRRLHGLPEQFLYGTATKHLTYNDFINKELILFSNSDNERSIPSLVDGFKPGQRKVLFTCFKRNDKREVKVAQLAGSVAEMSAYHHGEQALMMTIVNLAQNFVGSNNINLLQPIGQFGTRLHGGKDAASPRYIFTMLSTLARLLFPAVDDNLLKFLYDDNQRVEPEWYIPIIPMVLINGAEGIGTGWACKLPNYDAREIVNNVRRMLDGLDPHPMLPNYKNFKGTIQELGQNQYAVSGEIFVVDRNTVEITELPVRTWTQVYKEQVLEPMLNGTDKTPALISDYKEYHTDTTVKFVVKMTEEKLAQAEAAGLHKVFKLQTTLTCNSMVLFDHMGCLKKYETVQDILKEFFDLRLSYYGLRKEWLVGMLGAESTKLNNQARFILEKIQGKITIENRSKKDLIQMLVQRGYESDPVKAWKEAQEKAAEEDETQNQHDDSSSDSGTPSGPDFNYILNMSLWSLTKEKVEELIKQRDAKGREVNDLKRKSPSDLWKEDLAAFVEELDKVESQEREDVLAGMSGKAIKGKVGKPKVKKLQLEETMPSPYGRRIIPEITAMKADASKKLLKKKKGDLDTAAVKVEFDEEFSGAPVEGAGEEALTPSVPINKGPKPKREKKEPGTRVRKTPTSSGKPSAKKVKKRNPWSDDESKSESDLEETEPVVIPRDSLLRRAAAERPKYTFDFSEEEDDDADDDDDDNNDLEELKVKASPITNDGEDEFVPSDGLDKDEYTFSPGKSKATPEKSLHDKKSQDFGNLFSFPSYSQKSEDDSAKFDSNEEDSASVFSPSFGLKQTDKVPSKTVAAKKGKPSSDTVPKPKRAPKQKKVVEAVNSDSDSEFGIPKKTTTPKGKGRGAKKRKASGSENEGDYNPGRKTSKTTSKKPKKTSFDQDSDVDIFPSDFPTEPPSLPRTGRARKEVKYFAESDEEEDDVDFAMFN
# T1 sequence (P11388 whole entry): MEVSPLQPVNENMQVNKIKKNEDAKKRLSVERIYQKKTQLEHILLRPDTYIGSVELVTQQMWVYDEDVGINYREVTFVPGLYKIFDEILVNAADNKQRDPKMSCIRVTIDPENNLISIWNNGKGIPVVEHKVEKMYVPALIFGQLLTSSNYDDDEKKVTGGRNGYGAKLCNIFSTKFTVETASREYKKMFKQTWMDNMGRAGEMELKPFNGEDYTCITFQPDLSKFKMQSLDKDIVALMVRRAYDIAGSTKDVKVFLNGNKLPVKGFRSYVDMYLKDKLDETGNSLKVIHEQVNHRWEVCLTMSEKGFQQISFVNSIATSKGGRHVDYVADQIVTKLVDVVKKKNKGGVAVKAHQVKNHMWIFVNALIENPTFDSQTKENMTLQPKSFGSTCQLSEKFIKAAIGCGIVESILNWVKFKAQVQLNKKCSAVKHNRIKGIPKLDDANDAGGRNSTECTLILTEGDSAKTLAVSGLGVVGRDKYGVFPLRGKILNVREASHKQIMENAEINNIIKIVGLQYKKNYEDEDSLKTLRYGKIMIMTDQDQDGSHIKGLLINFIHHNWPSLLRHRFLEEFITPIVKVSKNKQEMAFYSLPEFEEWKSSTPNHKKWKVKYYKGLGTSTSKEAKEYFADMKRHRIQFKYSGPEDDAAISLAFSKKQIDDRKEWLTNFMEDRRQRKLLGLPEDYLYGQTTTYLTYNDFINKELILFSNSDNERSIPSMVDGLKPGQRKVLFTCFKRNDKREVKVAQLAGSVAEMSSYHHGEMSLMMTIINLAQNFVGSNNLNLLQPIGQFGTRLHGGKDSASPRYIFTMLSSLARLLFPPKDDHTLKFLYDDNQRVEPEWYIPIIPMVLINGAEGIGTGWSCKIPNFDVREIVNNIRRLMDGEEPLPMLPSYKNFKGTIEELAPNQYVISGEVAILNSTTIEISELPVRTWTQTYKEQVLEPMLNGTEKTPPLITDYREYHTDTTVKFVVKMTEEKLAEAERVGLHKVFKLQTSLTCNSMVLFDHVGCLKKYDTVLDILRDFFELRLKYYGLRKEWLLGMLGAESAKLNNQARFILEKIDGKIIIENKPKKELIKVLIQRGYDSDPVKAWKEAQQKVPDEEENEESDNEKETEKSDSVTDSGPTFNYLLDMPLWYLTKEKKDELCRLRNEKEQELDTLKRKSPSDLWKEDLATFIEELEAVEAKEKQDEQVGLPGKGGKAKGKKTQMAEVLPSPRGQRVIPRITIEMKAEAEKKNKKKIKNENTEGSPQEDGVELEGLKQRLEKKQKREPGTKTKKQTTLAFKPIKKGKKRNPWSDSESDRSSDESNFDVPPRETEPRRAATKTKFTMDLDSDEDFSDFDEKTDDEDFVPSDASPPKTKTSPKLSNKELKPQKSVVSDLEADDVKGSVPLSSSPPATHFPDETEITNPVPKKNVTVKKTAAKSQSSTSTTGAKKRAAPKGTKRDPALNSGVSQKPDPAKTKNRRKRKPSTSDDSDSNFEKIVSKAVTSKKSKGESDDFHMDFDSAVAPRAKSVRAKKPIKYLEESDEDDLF
smiles,measurement,setting,value
O=C(CCc1ccccc1)Nc1ccc(-c2ccc3cc(O)ccc3c2)cc1,IC50,[1],13400 nM
same,IC50,MDA-MB-231,200 nM
same,IC50,HepG2 [2],300 nM
same,inhibition,[3],82.1%
same,IC50,HeLa,100 nM
same,IC50,HCT-116,200 nM
same,IC50,PC-3,300 nM
same,IC50 at 72 h,[4],> 50000 nM
same,IC50 at 72 h,[5],31900 nM
same,IC50 at 72 h,[6],16700 nM
same,Ratio IC50,Homo sapiens [7],> 52.1
same,Ratio IC50,Homo sapiens [8],> 52.1
same,Ratio IC50,Homo sapiens [9],> 52.1
same,Ratio IC50,Homo sapiens [10],> 52.1
same,Ratio IC50,Homo sapiens [11],> 52.1
same,selectivity ratio,[12],> 52.1
same,selectivity ratio,[13],> 52.1
same,selectivity ratio,[14],> 52.1
same,selectivity ratio,[15],> 52.1
same,selectivity ratio,[16],> 52.1
same,selectivity ratio,[17],> 52.1
same,selectivity ratio,[18],> 52.1
same,selectivity ratio,[19],> 52.1
same,selectivity ratio,[20],> 52.1
same,inhibition,[21],inactive
same,IC50,A549,300 nM
same,Activity,[22],inactive
same,Activity,HepG2 [23],inactive
same,inhibition,[24],Dose-Dependent Effect
same,Activity,HepG2 [25],19%
same,Activity,HepG2 [26],32%
same,Activity,HepG2 [27],48.9%
same,Activity,HepG2 [28],11.2%
same,Activity,HepG2 [29],24.5%
same,Activity,HepG2 [30],46.1%
same,Activity,[31],Non-Toxic
same,Activity,HepG2 [32],14%
same,Activity,HepG2 [33],0.1%
same,IC50,DNA topoisomerase 2-beta,10100 nM
